# Results taken from patent US5369111A, “Modulator agent and use thereof” (University of Vermont, priority 1992, dated 1994).
# Experiments:
# [1] = system: RCC-2 and RCC-5 cells; experiment: Inhibition of population growth of rat colon cancer cell lines RCC-2 and RCC-5; type: cell-based; details: RCC-2 and RCC-5
# Description: The analogs were examined in a panel of tumor cell lines of both intrinsic and acquired drug resistance, as described in Table 1. The rat colon adenocarcinoma cell lines RCC-2 and RCC-5 (ref. 13) were maintained in Ham's F12 medium supplemented with 5% heat-inactivated, fetal bovine serum (Sterile Systems. Hyclone, Logan, Utah). The two rat colon cancer cell lines differ in their degree of cellular differentiation; whereas the RCC-2 cell line is undifferentiated, the RCC-5 cell line is highly mucinous. The human epidermoid carcinoma cell line KB-3-1 and its MDR variant KB-Vl, selected by VBL treatment (ref. 14; courtesy of M. Gottesman. National Cancer Institute), was maintained in DMEM medium supplemented with 10%, heat-inactivated, fetal bovine serum. […]
# Mid-exponential cultures were used for all assays. […] Cytotoxicity was determined by quantitation of population growth after 72 h incubation by electronic particle counter (Coulter Electronics, Hialeah, Fla.). […] Colonies were scored 7-11 days later. […]
# FIG. 7 represents the toxicity of analog C-20'-deoxy vincovaline (A) and C-20'-deoxy deethyl vincovaline (B) to population growth of the rat colon adenocarcinoma cell lines. The congener was added at various concentrations to RCC-2 (.cndot.) and RCC-5 (Δ) cell cultures and the population cell number was determined 72 hours later. […]
# [2] = system: S180 MDR cell strains A3 and A10; experiment: Modulation of acquired drug resistance in the S180 MDR cell strains A3 and A10; type: cell-based, murine; details: VBL, VCR and ADM
# Summary of the method: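 MDR S180 lines in tubes (1×10^5 cells/ml) exposed to graded modulator added minutes before ADM, VBL or VCR at parental IC70s (2.0×10^-7 M ADM, 1.5×10^-8 M VBL, 4.5×10^-8 M VCR). Growth counted electronically at 72 h. Reversing concentration = minimum modulator giving 70% inhibition; duplicates, two experiments.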
structure (smiles),measurement,setting,value
"CC[C@]12C=CCN3CC[C@@]4(c5cc([C@]6(C(=O)OC)C[C@H]7CCCN(CCc8c6[nH]c6ccccc86)C7)c(OC)cc5N(C)[C@H]4[C@@](O)(C(=O)OC)[C@@H]1OC(C)=O)[C@@H]32 [analog n° 352, C-20'-deoxy-20'-deethyl-C-14', 16'-epi-VBL]",reduction in cytotoxicity to the colon cancer cell lines compared to C-20'-deoxy vincovaline,[1],10 fold
same,range of resistance levels over which parental sensitivity was restored,[2],3-17 fold
